Laboratory results as given in patent US9051321B2, “Heterocyclic acrylamides and their use as pharmaceuticals” (FAB PHARMA S.A.S, priority 2009, dated 2015).

Experiments:
HSA (human albumin) = HSA (human albumin) (Homo sapiens (Human), UniProt P02768); experiment: HSA binding analysis using a chiral HSA column; format: in vitro ADME; details: for k′ (capacity factor): 37° C., pH 7.0, k′=(Tr-T0)/T0; for HSA binding Conclusion: classification of AB %
Description: The test system used in this analysis was an HSA chiral column.
The relationship between the retention time (Tr) and percentage of albumin binding (AB %) depended on the dead time (T0) and the capacity factor (k′): AB %=[k′/(k′+1)]*100 • where k′=(Tr-T0)/T0

[1] = tested on: methicillin susceptible Staphylococcus aureus strain ATCC 29213; experiment: In vivo antibacterial activity, experimental model of thigh infection in neutropenic mice; details: 1.5 h after infection, neutropenic female Swiss mice, 20 h
E. coli FabI = E. coli FabI (Escherichia coli (strain K12), UniProt P0AEK4); details: cited from earlier work
Sequence of E. coli FabI (P0AEK4 whole entry): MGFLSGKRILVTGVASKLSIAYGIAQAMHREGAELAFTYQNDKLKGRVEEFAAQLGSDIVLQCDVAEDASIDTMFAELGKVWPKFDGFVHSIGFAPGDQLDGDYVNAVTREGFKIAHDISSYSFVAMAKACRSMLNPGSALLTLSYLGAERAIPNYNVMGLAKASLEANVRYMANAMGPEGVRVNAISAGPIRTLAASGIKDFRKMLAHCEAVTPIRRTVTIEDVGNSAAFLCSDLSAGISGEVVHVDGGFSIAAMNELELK

Sequence of HSA (human albumin) (P02768 25-609): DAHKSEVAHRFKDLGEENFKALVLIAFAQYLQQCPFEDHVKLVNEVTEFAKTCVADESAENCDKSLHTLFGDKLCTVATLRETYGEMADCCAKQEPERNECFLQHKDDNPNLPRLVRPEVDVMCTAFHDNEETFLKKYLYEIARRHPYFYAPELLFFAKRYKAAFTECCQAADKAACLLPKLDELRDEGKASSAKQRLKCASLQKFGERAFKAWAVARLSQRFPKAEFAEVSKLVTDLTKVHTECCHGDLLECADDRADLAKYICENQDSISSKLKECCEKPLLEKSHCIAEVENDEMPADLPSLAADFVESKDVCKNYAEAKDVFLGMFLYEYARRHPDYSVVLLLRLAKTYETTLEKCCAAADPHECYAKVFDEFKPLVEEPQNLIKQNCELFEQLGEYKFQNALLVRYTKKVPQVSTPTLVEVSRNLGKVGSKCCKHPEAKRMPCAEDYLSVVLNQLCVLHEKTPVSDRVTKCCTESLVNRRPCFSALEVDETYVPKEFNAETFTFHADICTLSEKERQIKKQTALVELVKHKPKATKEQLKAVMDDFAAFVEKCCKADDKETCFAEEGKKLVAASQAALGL

Row | SMILES | affinity in vitro to human albumin (HSA (human albumin)) | k′ (capacity factor) (HSA (human albumin)) | HSA binding Conclusion (HSA (human albumin)) | in vivo antibacterial activity (bacterial burden in the thigh of infected mice) ([1]; 100 mg/kg orally) | in vivo antibacterial activity (bacterial burden in the thigh of infected mice) ([1]; 50 mg/kg subcutaneously) | type of inhibition of E. coli FabI (E. coli FabI)
1 | O=C1CCc2cc(/C=C/C(=O)N3CC(OCc4cccs4)C3)cnc2N1 [Example 12, 6-{(1E)-3-Oxo-3-[3-(2-thienylmethoxy)azetidin-1-yl]prop-1-en-1-yl}-3,4-dihydro-1,8-naphthyridin-2(1H)-one] | low affinity | 0.826 | Low binding (AB≦75%: Low binding) | able to protect mice against thigh dissemination | – | –
2 | CCCCCOC1CN(C(=O)/C=C/c2cnc3c(c2)CCC(=O)N3)C1 [Example 15, 6-{(1E)-3-Oxo-3-[3-(pentyloxy)azetidin-1-yl]prop-1-en-1-yl}-3,4-dihydro-1,8-naphthyridin-2(1H)-one] | – | – | – | – | able to protect mice against thigh dissemination | –
3 | O=C1CCc2cc(/C=C/C(=O)N3CC(OCCc4cccs4)C3)cnc2N1 [Example 29, (E)-6-(3-Oxo-3-(3-(2-(thiophen-2-yl)ethoxy)azetidin-1-yl)prop-1-enyl)-3,4-dihydro-1,8-naphthyridin-2(1H)-one] | low affinity | 1.259 | Low binding (AB≦75%: Low binding) | – | – | –
4 | O=C1CCc2cc(/C=C/C(=O)N3CC(c4cc5ccccc5o4)C3)cnc2N1 [Example 59, (E)-6-(3-(3-(Benzofuran-2-yl)azetidin-1-yl)-3-oxoprop-1-enyl)-3,4-dihydro-1,8-naphthyridin-2(1H)-one] | moderate affinity | 4.678 | Moderate | – | – | –
5 | CCCCOC1CN(C(=O)/C=C/c2cnc3c(c2)CC2(CCN(C)CC2)C(=O)N3)C1 [Example 63, (E)-6-(3-(3-Butoxyazetidin-1-yl)-3-oxoprop-1-enyl)-1′-methyl-1H-spiro[[1,8]naphthyridine-3,4′-piperidin]-2(4H)-one] | low affinity | 1.288 | Low binding (AB≦75%: Low binding) | – | – | –
6 | Cc1c(C2CN(C(=O)/C=C/c3cnc4c(c3)CCC(=O)N4)C2)oc2ccccc12 [Example 67, (E)-6-(3-(3-(3-Methylbenzofuran-2-yl)azetidin-1-yl)-3-oxoprop-1-enyl)-3,4-dihydro-1,8-naphthyridin-2(1H)-one] | moderate affinity | 8.360 | Moderate | – | – | –
7 | Cc1c(C2CN(C(=O)/C=C/c3cnc4c(c3)CC3(CCN(C)CC3)C(=O)N4)C2)oc2ccccc12 [Example 68, (E)-1′-Methyl-6-(3-(3-(3-methylbenzofuran-2-yl)azetidin-1-yl)-3-oxoprop-1-enyl)-1H-spiro[[1,8]naphthyridine-3,4′-piperidin]-2(4H)-one] | high affinity | 11.216 | High binding (AB≦90%: High binding) | – | – | –
8 | CN1CCC2(CC1)Cc1cc(/C=C/C(=O)N3CC(c4cc5ccccc5o4)C3)cnc1NC2=O [Example 69, (E)-6-(3-(3-(Benzofuran-2-yl)azetidin-1-yl)-3-oxoprop-1-en-1-yl)-1′-methyl-1H-spiro[[1,8]naphthyridine-3,4′-piperidin]-2(4H)-one] | moderate affinity | 7.730 | Moderate | – | – | –
9 | CCCO/N=C(\C)C1CN(C(=O)/C=C/c2cnc3c(c2)CCC(=O)N3)C1 [Example 70, 6-((E)-3-Oxo-3-(3-((E)-1-(propoxyimino)ethyl)azetidin-1-yl)prop-1-enyl)-3,4-dihydro-1,8-naphthyridin-2(1H)-one] | low affinity | 0.580 | Low binding (AB≦75%: Low binding) | – | – | –
10 | CCCO/N=C(/C)C1CN(C(=O)/C=C/c2cnc3c(c2)CCC(=O)N3)C1 [Example 71, 6-((E)-3-Oxo-3-(3-((Z)-1-(propoxyimino)ethyl)azetidin-1-yl)prop-1-enyl)-3,4-dihydro-1,8-naphthyridin-2(1H)-one] | low affinity | 0.404 | Low binding (AB≦75%: Low binding) | – | – | –
11 | Oc1cc(Cl)ccc1Oc1ccc(Cl)cc1Cl [Triclosan] | – | – | – | – | – | reversible, tight-binding inhibitor
